Measurements as given in patent publication US4745124A, “Orally effective anti-hypertensive agents” (priority 1983, dated 1988).

Legend:
[1] = tested on: pressor effects of angiotensin II; assay: oral: blood pressure response to angiotensin II in anesthetized rats; format: in vivo, rat; conditions: 2 or 5 mg/kg, angiotensin II 80 ng
Experimental: Rats (210-290 g body weight) were fasted overnight and then anesthetized with intraperitoneal pentobarbital, 50-60 mg/kg. Tracheostomy was performed and the animals were ventilated mechanically. A cannula was inserted into a femoral vein for injection of angiotensin I or II, and a second cannula was inserted into a common carotid artery for direct measurement of arterial blood pressure. Heparin, 1,000 units, was injected via the femoral vein to prevent coagulation. Blood pressure was measured with a pressure transducer connected to a polygraph. The rats were injected with 80 ng of angiotensin I or angiotensin II in 20 μl of 0.9 g % NaCl; an amount of antiotensin I or II sufficient to raise mean arterial blood pressure by 27-40 mm Hg. After the responsiveness of a given rat to angiotensins I and II was established, compound (I), at 2 or 5 mg/kg (drug dissolved in 0.5 ml of H2 O plus 10 μl of 1N NaHCO3), was given via a stomach tube. At timed intervals, the effects of 80 ng of angiotensin I or angiotensin II on mean arterial blood pressure were tested.
Rats were prepared as described in Example 222. Compound (II) [N-benzoyl-L-phenylalanylthiopropanoyl)-L-proline] was given orally, via a stomach tube, at a dose of 12 mg/kg or 20 mg/kg. Compound (II) was dissolved in 0.5 ml of H2 O plus 10 μl of 1N NaHCO3. […]

serum ACE = assay: oral effectiveness: intrinsic serum ACE activity in rats; format: in vivo, female Sprague-Dawley rat; conditions: oral 1 mg/kg
Experimental: B. In certain experiments, as identified, an alternative assay system was employed using [^3 H]-HipGlyGly as substrate as described by Ryan, J. W., et al., Biochem. J. 167 501 (1977).
Female Sprague-Dawley rats, approximately 250 g weight, were fasted overnight and then administered either 0.5 ml of saline, via stomach tube, or 0.5 ml saline containing compound (I) at a dose of 1 mg per kg of body weight. At timed intervals the rats were beheaded using a guillotine and 3 ml-5 ml blood was collected. The sera were assayed for intrinsic ACE activity, using the assay of Example 216B.

[2] = tested on: pressor effects of angiotensin I; assay: oral effectiveness: blood pressure response to angiotensin I in anesthetized rats; format: in vivo, rat
How it was run: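 Fasted rats under pentobarbital anesthesia (50-60 mg/kg i.p.), ventilated, with carotid arterial pressure recorded; i.v. angiotensin I (80 ng, 160 ng or 400 ng/kg) or angiotensin II (80 ng) challenges repeated at timed intervals after oral gavage of compound (2-20 mg/kg, 10 mg, 17 or 23 μmol/kg) in aqueous NaHCO3.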

C[C@H](CSC(=O)C(Cc1ccccc1)NC(=O)c1ccccc1)C(=O)N1CCC[C@H]1C(=O)O (stereo partly drawn) [Compound (I), 2-benzoylphenylalanylthio-2-D-methylpropanoyl-L-proline]
effects of angiotensin II (specificity) [1]: not inhibited | Serum ACE activity (serum ACE; 5 min, run 1): 100% of Control | Serum ACE activity (serum ACE; 5 min, run 2): 100% of Control | Serum ACE activity (serum ACE; 10 min, run 1): 65% of Control | Serum ACE activity (serum ACE; 10 min, run 2): 52% of Control | Serum ACE activity (serum ACE; 30 min, run 1): 50% of Control | Serum ACE activity (serum ACE; 30 min, run 2): 45% of Control | Serum ACE activity (serum ACE; 60 min, run 1): 50% of Control | Serum ACE activity (serum ACE; 60 min, run 2): 42% of Control | Serum ACE activity (serum ACE; 90 min, run 1): 20% of Control | Serum ACE activity (serum ACE; 90 min, run 2): 20% of Control | Blood Pressure Response to 80 ng of Angiotensin I ([2]; oral 2 mg/kg, 6 min, Rat 3): 111 % of control | Blood Pressure Response to 80 ng of Angiotensin I ([2]; oral 2 mg/kg, 12 min, Rat 3): 93 % of control | Blood Pressure Response to 80 ng of Angiotensin I ([2]; oral 2 mg/kg, 18 min, Rat 3): 81 % of control | Blood Pressure Response to 80 ng of Angiotensin I ([2]; oral 2 mg/kg, 24 min, Rat 3): 85 % of control | Blood Pressure Response to 80 ng of Angiotensin I ([2]; oral 2 mg/kg, 35 min, Rat 3): 56 % of control | Blood Pressure Response to 80 ng of Angiotensin I ([2]; oral 2 mg/kg, 58 min, Rat 3): 56 % of control | Blood Pressure Response to 80 ng of Angiotensin I ([2]; oral 2 mg/kg, 68 min, Rat 3): 52 % of control | Blood Pressure Response to 80 ng of Angiotensin I ([2]; oral 2 mg/kg, 88 min, Rat 3): 30 % of control | Blood Pressure Response to 80 ng of Angiotensin I ([2]; oral 2 mg/kg, 118 min, Rat 3): 37 % of control | Blood Pressure Response to 80 ng of Angiotensin I ([2]; oral 2 mg/kg, 138 min, Rat 3): 60 % of control | Blood Pressure Response to 80 ng of Angiotensin I ([2]; oral 2 mg/kg, 169 min, Rat 3): 37 % of control | Blood Pressure Response to 80 ng of Angiotensin I ([2]; oral 2 mg/kg, 185 min, Rat 3): 37 % of control | Blood Pressure Response to 80 ng of Angiotensin I ([2]; oral 2 mg/kg, 205 min, Rat 3): 44 % of control | Blood Pressure Response to 80 ng of Angiotensin I ([2]; oral 5 mg/kg, 6 min, Rat 2): 67 % of control | Blood Pressure Response to 80 ng of Angiotensin I ([2]; oral 5 mg/kg, 12 min, Rat 1): 41 % of control | Blood Pressure Response to 80 ng of Angiotensin I ([2]; oral 5 mg/kg, 12 min, Rat 2): 57 % of control | Blood Pressure Response to 80 ng of Angiotensin I ([2]; oral 5 mg/kg, 18 min, Rat 1): 36 % of control | Blood Pressure Response to 80 ng of Angiotensin I ([2]; oral 5 mg/kg, 24 min, Rat 2): 43 % of control | Blood Pressure Response to 80 ng of Angiotensin I ([2]; oral 5 mg/kg, 35 min, Rat 1): 23 % of control | Blood Pressure Response to 80 ng of Angiotensin I ([2]; oral 5 mg/kg, 35 min, Rat 2): 37 % of control | Blood Pressure Response to 80 ng of Angiotensin I ([2]; oral 5 mg/kg, 48 min, Rat 1): 18 % of control | Blood Pressure Response to 80 ng of Angiotensin I ([2]; oral 5 mg/kg, 48 min, Rat 2): 17 % of control | Blood Pressure Response to 80 ng of Angiotensin I ([2]; oral 5 mg/kg, 58 min, Rat 1): 23 % of control | Blood Pressure Response to 80 ng of Angiotensin I ([2]; oral 5 mg/kg, 58 min, Rat 2): 17 % of control | Blood Pressure Response to 80 ng of Angiotensin I ([2]; oral 5 mg/kg, 68 min, Rat 2): 20 % of control | Blood Pressure Response to 80 ng of Angiotensin I ([2]; oral 5 mg/kg, 78 min, Rat 2): 17 % of control | Blood Pressure Response to 80 ng of Angiotensin I ([2]; oral 5 mg/kg, 88 min, Rat 2): 13 % of control | Blood Pressure Response to 80 ng of Angiotensin I ([2]; oral 5 mg/kg, 118 min, Rat 1): 23 % of control | Blood Pressure Response to 80 ng of Angiotensin I ([2]; oral 5 mg/kg, 185 min, Rat 2): 27 % of control | Blood Pressure Response to 80 ng of Angiotensin I ([2]; oral 5 mg/kg, 205 min, Rat 2): 33 % of control | Blood Pressure Response to 80 ng of Angiotensin I ([2]; oral 5 mg/kg, 213 min, Rat 2): 33 % of control | Blood Pressure Response to 80 ng of Angiotensin I ([2]; oral 5 mg/kg, 226 min, Rat 2): 43 % of control | duration of drug action ([2]; oral, 2 or 5 mg/kg): > 226 min
